Results as given in the supplement of paper PMC13207355.

How the values were obtained:
Conditions in all cases: exposure time: 72 h
[1] = tested on: E34 (patient-derived glioblastoma stem cells of proneural subtype); assay: phenotypic distance (Euclidean, principal components) from DMSO controls (arbitrary units); higher = stronger morphological change
[2] = tested on: E31 (patient-derived glioblastoma stem cells of proneural subtype); assay: as above
[3] = tested on: E21 (patient-derived glioblastoma stem cells of mesenchymal subtype); assay: as above
[4] = tested on: E28 (patient-derived glioblastoma stem cells of classical subtype); assay: as above
[5] = tested on: E57 (patient-derived glioblastoma stem cells of mesenchymal subtype); assay: as above
[6] = tested on: E13 (patient-derived glioblastoma stem cells of classical subtype); assay: as above
[7] = tested on: FT3469 (normal neural stem cell line); assay: as above
[8] = tested on: E34; assay: surviving fraction (nuclei count normalised to DMSO); higher = more cells surviving (less toxic)
[9] = tested on: E31; assay: as above
[10] = tested on: E21; assay: as above
[11] = tested on: E28; assay: as above
[12] = tested on: E57; assay: as above
[13] = tested on: E13; assay: as above
[14] = tested on: FT3469; assay: as above
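Throughout, for phenotypic distance (Euclidean, principal components) from DMSO controls: cell Painting imaging in 384-well plates, CellProfiler features reduced to at least 20 principal components, Euclidean distance versus same-plate DMSO vehicle wells (0.1% v/v), median over six images per well.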
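Throughout, for surviving fraction (nuclei count normalised to DMSO): nuclei counted by high-content imaging of Hoechst-stained cells in laminin-coated 384-well plates, relative to 0.1% DMSO vehicle wells, with staurosporine as cell-death control.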

CO[C@H]1C(=O)[C@]2(C)[C@@H](OC)C[C@H]3OC[C@@]3(OC(C)=O)[C@H]2[C@H](OC(=O)c2ccccc2)[C@]2(O)C[C@H](OC(=O)[C@H](O)[C@@H](NC(=O)OC(C)(C)C)c3ccccc3)C(C)=C1C2(C)C [Cabazitaxel]
phenotypic distance ([1]; 4.1 nM): 4.76
phenotypic distance ([1]; 12.3 nM): 5.24
phenotypic distance ([1]; 37 nM): 5.3
phenotypic distance ([1]; 111.1 nM): 4.8
phenotypic distance ([1]; 333.3 nM): 5.59
phenotypic distance ([1]; 1000 nM): 4.91
phenotypic distance ([1]; 3000 nM): 4.55
phenotypic distance ([2]; 4.1 nM): 4.63
phenotypic distance ([2]; 12.3 nM): 5.67
phenotypic distance ([2]; 37 nM): 4.24
phenotypic distance ([2]; 111.1 nM): 4.7
phenotypic distance ([2]; 333.3 nM): 4.56
phenotypic distance ([2]; 1000 nM): 4.89
phenotypic distance ([2]; 3000 nM): 3.99
phenotypic distance ([3]; 4.1 nM): 7.35
phenotypic distance ([3]; 12.3 nM): 7.15
phenotypic distance ([3]; 37 nM): 6.53
phenotypic distance ([3]; 111.1 nM): 7.01
phenotypic distance ([3]; 333.3 nM): 7.6
phenotypic distance ([3]; 1000 nM): 8.51
phenotypic distance ([3]; 3000 nM): 7.5
phenotypic distance ([4]; 4.1 nM): 4.55
phenotypic distance ([4]; 12.3 nM): 4.4
phenotypic distance ([4]; 37 nM): 3.8
phenotypic distance ([4]; 111.1 nM): 4.96
phenotypic distance ([4]; 333.3 nM): 3.6
phenotypic distance ([4]; 1000 nM): 4.06
phenotypic distance ([4]; 3000 nM): 3.99
phenotypic distance ([5]; 4.1 nM): 6.8
phenotypic distance ([5]; 12.3 nM): 7.09
phenotypic distance ([5]; 37 nM): 5.83
phenotypic distance ([5]; 111.1 nM): 6.72
phenotypic distance ([5]; 333.3 nM): 6.55
phenotypic distance ([5]; 1000 nM): 6.56
phenotypic distance ([5]; 3000 nM): 6.86
phenotypic distance ([6]; 4.1 nM): 7.08
phenotypic distance ([6]; 12.3 nM): 7.55
phenotypic distance ([6]; 37 nM): 7.44
phenotypic distance ([6]; 111.1 nM): 6.21
phenotypic distance ([6]; 333.3 nM): 6.97
phenotypic distance ([6]; 1000 nM): 7.09
phenotypic distance ([6]; 3000 nM): 6.39
phenotypic distance ([7]; 4.1 nM): 4.34
phenotypic distance ([7]; 12.3 nM): 4.07
phenotypic distance ([7]; 37 nM): 3.92
phenotypic distance ([7]; 111.1 nM): 4.49
phenotypic distance ([7]; 333.3 nM): 4.39
phenotypic distance ([7]; 1000 nM): 5.31
phenotypic distance ([7]; 3000 nM): 3.95
surviving fraction ([8]; 4.1 nM): 0.399
surviving fraction ([8]; 12.3 nM): 0.365
surviving fraction ([8]; 37 nM): 0.434
surviving fraction ([8]; 111.1 nM): 0.49
surviving fraction ([8]; 333.3 nM): 0.476
surviving fraction ([8]; 1000 nM): 0.608
surviving fraction ([8]; 3000 nM): 0.531
surviving fraction ([9]; 4.1 nM): 0.252
surviving fraction ([9]; 12.3 nM): 0.164
surviving fraction ([9]; 37 nM): 0.195
surviving fraction ([9]; 111.1 nM): 0.192
surviving fraction ([9]; 333.3 nM): 0.262
surviving fraction ([9]; 1000 nM): 0.218
surviving fraction ([9]; 3000 nM): 0.288
surviving fraction ([10]; 4.1 nM): 0.323
surviving fraction ([10]; 12.3 nM): 0.353
surviving fraction ([10]; 37 nM): 0.326
surviving fraction ([10]; 111.1 nM): 0.325
surviving fraction ([10]; 333.3 nM): 0.365
surviving fraction ([10]; 1000 nM): 0.413
surviving fraction ([10]; 3000 nM): 0.423
surviving fraction ([11]; 4.1 nM): 0.367
surviving fraction ([11]; 12.3 nM): 0.401
surviving fraction ([11]; 37 nM): 0.344
surviving fraction ([11]; 111.1 nM): 0.301
surviving fraction ([11]; 333.3 nM): 0.412
surviving fraction ([11]; 1000 nM): 0.412
surviving fraction ([11]; 3000 nM): 0.534
surviving fraction ([12]; 4.1 nM): 0.0988
surviving fraction ([12]; 12.3 nM): 0.102
surviving fraction ([12]; 37 nM): 0.0906
surviving fraction ([12]; 111.1 nM): 0.117
surviving fraction ([12]; 333.3 nM): 0.125
surviving fraction ([12]; 1000 nM): 0.133
surviving fraction ([12]; 3000 nM): 0.141
surviving fraction ([13]; 4.1 nM): 0.197
surviving fraction ([13]; 12.3 nM): 0.226
surviving fraction ([13]; 37 nM): 0.203
surviving fraction ([13]; 111.1 nM): 0.265
surviving fraction ([13]; 333.3 nM): 0.25
surviving fraction ([13]; 1000 nM): 0.245
surviving fraction ([13]; 3000 nM): 0.32
surviving fraction ([14]; 4.1 nM): 0.374
surviving fraction ([14]; 12.3 nM): 0.573
surviving fraction ([14]; 37 nM): 0.435
surviving fraction ([14]; 111.1 nM): 0.553
surviving fraction ([14]; 333.3 nM): 0.535
surviving fraction ([14]; 1000 nM): 0.406
surviving fraction ([14]; 3000 nM): 0.63
